According to PMC6381024, “Probing Anti-inflammatory Properties Independent of NF-κB Through Conformational Constraint of Peptide-Based Interleukin-1 Receptor Biased Ligands” (Frontiers in Chemistry, 2019):

What was measured:
[1] = test system: IL-1R; experiment: Radioligand displacement of [125I]-peptide 1 in RAW-Blue macrophage cells; type: binding; conditions: for Percentage of displacement of [125I]-1, relative to unlabeled peptide 1, ±SEM: 100 μM cold peptide pre-incubated 20 min, then 600 nM [125I]-peptide 1 for 2 h at 37°C, gamma counter, mean ± SEM, three independent experiments
Method: Displacement of radiolabeled peptide 1 was performed as described previously (Quiniou et al., [2008]). Briefly, RAW-Blue macrophage cells (InVivogen; San Diego, CA) were pre-incubated for 20 min with 100 μM of non-radiolabeled (“cold”) peptide 1, 5, or 6 followed by incubation for 2 h at 37°C with [^125I]-peptide 1 at 600 nM concentration to ensure maximal specific binding (Quiniou et al., [2008]). Cells were washed four times with PBS buffer and lysed with 0.1 N NaOH/0.1% Triton X-100. Bound radioactivity was measured on cell lysates with a Hidex AMG gamma counter (Hidex; Turku Finland). Data are representative of three independent experiments.
Peptide 1 is known to bind to IL-1R (Quiniou et al., [2008]). To determine if the Agl and Hgl derivatives occupied the same binding site as peptide 1, a radio-ligand displacement assay was used to determine the extent to which peptides 5 and 6 displaced radiolabeled 1.

[2] = test system: Sprague Dawley rat pups; experiment: Oxygen-induced retinopathy (OIR), retinal vaso-obliteration in rat pups; type: in vivo; set-up: key to In vivo OIR (heatmap grade of efficacy): 0: No effect; No effect 01234 Maximum inhibition/efficacy; No effect 01234 Maximum inhibition/efficacy; No effect 01234 Maximum inhibition/efficacy; 4: Maximum inhibition/efficacy; conditions: for In vivo OIR (heatmap grade of efficacy): Sprague Dawley rat pups, 80% O2 P5-P10, Kineret 3 mg/kg/day (legend: 15 mg/kg/day), twice-daily i.p.; for In vivo OIR (heatmap grade of efficacy) / Extent of vaso-obliteration (area as percentage of total retinal area) after treatment: peptides 2 mg/kg/day; for Extent of vaso-obliteration (area as percentage of total retinal area) after treatment / Efficacy against vaso-obliteration in the OIR model: rat pups, 80% oxygen days 5 to 10; for Extent of vaso-obliteration (area as percentage of total retinal area) after treatment: Kineret 3 mg/kg/day (legend: 15 mg/kg/day) i.p., untreated ~35%; for Efficacy against vaso-obliteration in the OIR model: 2 mg/kg/day i.p.
Source text: (§1) On P5, litters were transferred to a controlled hyperoxic environment (Biospherix OxyCycler A84XOV) and maintained at 80 ± 1% O2, which is used to induce vaso-obliteration of the retinal vasculature. At this timepoint, the vasculature is immature and particularly susceptible to […] insults resulting in vaso-obliteration, a defining characteristic of the early stage of retinopathies in premature infants (Garner and Ashton, [1971]). Control litters were not exposed to hyperoxia and were kept in standard conditions with room air (21% O2). To control for the effects of hyperoxia on the lactation of the dams, dams of hyperoxic litters were switched with dams of control litters on P8.
(§2) In litters exposed to hyperoxia, pups were randomized to receive phosphate-buffered saline (PBS) vehicle, 2 mg/kg/day of peptides 1, 5, or 6 or 3 mg/kg/day of Kineret from P5 to P10. These doses were determined from our previous study (Rivera et al., [2013]) and administered in twice-daily intra-peritoneal injections titrated to 20 μL per injection with 28-gauge insulin syringes. A total of 6–8 pups were used for each treatment group.
On P10, pups were euthanized by decapitation under 2% isoflurane anesthesia. Eyes were enucleated and fixed in 4% paraformaldehyde for 1 h at room temperature before washing twice with PBS and storage at 4°C in PBS until further processing.
Under a dissecting microscope, the cornea and lens were gently removed from the eyes and remnants of the hyaloid vasculature were removed from the retinas using surgical scissors and tweezers. The retinas were gently removed from the underlying sclera/choroid complex.
(§3) Retinas were treated at room temperature for 1 h with a blocking solution consisting of 1% bovine serum albumin (BSA), 1% normal goat serum, 0.1% Triton X-100 and 0.05% Tween-20 in PBS. The retinas were then double-labeled overnight at 4°C with gentle shaking in an antibody solution consisting of 1 mM CaCl2, 1% Triton X-100, 1% TRITC-conjugated lectin cell endothelial marker from Bandeiraea simplicifolia (Sigma-Aldrich, St Louis, MO) and a 1:500 dilution of rabbit anti-ionized calcium-binding adapter molecule (Iba)-1 antibody (Wako Chemicals USA) in PBS. The retinas were then washed thrice with PBS and incubated with a secondary antibody solution consisting of 1% BSA, 0.1% Triton X-100, 0.05% Tween-20 and 1:500 Alexa-594-conjugated donkey anti-rabbit IgG (ThermoFisher Scientific, Rockford, IL) in PBS for 2 h at room temperature. Retinas were washed thrice with PBS and then flat-mounted onto glass slides with coverslips and Fluoro-Gel mounting medium (Electron Microscopy Sciences, Hatfield, PA).
(§4) For assessment of vaso-obliteration, retinas were imaged using an epifluorescence microscope at 10X magnification (Zeiss AxioImager Z2) and version 4.8 of the AxioVision software. Images were captured and stitched together using the software's MosaiX feature. Iba-1 staining was assessed with the same microscope at 20X magnification, and a total of 4 fields per retina were imaged halfway between the optic nerve and the edge of the retina.
(§5) The FIJI software was used to the quantify the area of vaso-obliteration in each retina, expressed as a percentage of the area of the whole retina. The number of Iba-1-positive cells was counted using the cell counter plug-in in FIJI, and the average of cell counts in 4 fields per retina was calculated.
Figure 10 The preventive effects of peptides 1, 5, and 6 against vaso-obliteration in an OIR model. Five-days old Sprague Dawley pups and their mothers were kept in 80% oxygen until the 10 day of life, receiving twice-daily intraperitoneal injections of peptides 1, 5, and 6 (2 mg/kg/day), Kineret (15 mg/kg/day) or PBS vehicle (each injection was titrated to a volume of 20 μL). (A) Representative retinal flatmounts stained with FITC-conjugated Bandeiraea simplicifolia lectin, taken at 10X magnification and stitched with MosaiX in Axiovision 4.8. […]

[3] = test system: retinal microglia; experiment: Retinal microglial activation and density (Iba-1 staining) in the OIR model; type: in vivo; conditions: OIR rat pups, 2 mg/kg/day i.p.; for Effect on microglial activation / morphology: Iba-1 immunohistochemistry
Source text: as §1, §2, §3, §4
Representative images of Iba-1 staining were taken using a laser scanning confocal microscope (Olympus IX81 with Fluoview FV1000 Scanhead) with the Fluoview Software at 30X magnification.
as §5
Figure 11 The effects of peptides 1, 5, and 6 on retinal microglial activation and density. Retinas were obtained for immunohistochemistry from rat pups treated with the OIR protocol, and incubated with rabbit anti-iba-1 antibody, followed by donkey anti-rabbit antibody conjugated to Alexa 594. (A) Representative confocal images of retinal microglia at 30X magnification: scale bar 100 μm. (B) Epifluorescence microscopy images at 20 × magnification of retinal microglial density quantified using ImageJ: 4 images per retina were taken at a distance halfway between the optic nerve and the peripheral edge of the retina; n = 5–7 for peptide 1, 5, and 6, and Kineret; n = 8–10 for normoxia and vehicle; ^*p < 0.05, ^****p < 0.0001 relative to the vehicle group. Treatment groups that are not labeled with asterisks are statistically non-significant compared to the vehicle group.

[4] = test system: thymocyte TF-1 proliferation; conditions: ref Jamieson et al., 2009; Boutard et al., 2011; cited from earlier work
Source text: Conformational restriction of natural peptides has been used to identify active geometry and to enhance therapeutic potential by mitigating issues such as low oral availability and poor metabolic stability (Carney et al., [2014]; Rubin and Qvit, [2016]; Lubell, [2017]). Since pioneering studies by Freidinger and Veber, the application of Agl residues has proven effective for constraining the backbone sequence to favor β-turn geometry in various peptides (Freidinger et al., [1980], [1982]; Yu et al., [1988]; Zhang et al., [1996]; Aube, [1999]; Perdih and Kikelj, [2006]; Valle et al., [2009]). I ...

Substance	Percentage of displacement of [125I]-1, relative to unlabeled peptide 1, ±SEM [1] [%]	In vivo OIR (heatmap grade of efficacy) [2]	Extent of vaso-obliteration (area as percentage of total retinal area) after treatment [2]	Effect on microglial activation / morphology [3]	other results
H-D-Arg-D-Tyr-(3R,4R)-Hgl-(S)-Val-D-Glu-D-Leu-D-Ala-NH2 [[(3R,4R)-Hgl^3-(S)-Val^4]-1]	82.12 ± 14.12	–	–	–	–
H-D-Arg-D-Tyr-(3R,4R)-Hgl-D-Val-D-Glu-D-Leu-D-Ala-NH2 [[(3R,4R)-Hgl^3]-1]	104.6 ± 6.826	–	–	–	–
H-D-Arg-D-Tyr-(3R,4S)-Hgl-(S)-Val-D-Glu-D-Leu-D-Ala-NH2 [[(3R,4S)-Hgl^3-(S)-Val^4]-1]	58.63 ± 13.45	–	–	–	–
H-D-Arg-D-Tyr-(3R,4S)-Hgl-D-Val-D-Glu-D-Leu-D-Ala-NH2 [[(3R,4S)-Hgl^3]-1]	32.13 ± 16.94	4	15–25%	prevented partially the activation of microglia	Capacity to displace [125I]-1 compared to cold unlabeled peptide 1 ([1]; 100 μM cold peptide, 600 nM [125I]-peptide 1): significantly lower (p = 0.0011) ability to compete with radiolabeled peptide 1
H-D-Arg-D-Tyr-(3S,4R)-Hgl-D-Val-D-Glu-D-Leu-D-Ala-NH2 [[(3S,4R)-Hgl^3]-1]	78.64 ± 21.22	4	15–25%	prevented partially the activation of microglia	–
H-D-Arg-D-Tyr-(R)-Agl-(S)-Val-D-Glu-D-Leu-D-Ala-NH2 [[(3R)-Agl^3-(S)-Val^4]-1]	120.7 ± 15.69	–	–	–	–
H-D-Arg-D-Tyr-(R)-Agl-D-Val-D-Glu-D-Leu-D-Ala-NH2 [[(3R)-Agl^3]-1]	83.55 ± 9.02	0	–	no appreciable effect on microglial morphology	Efficacy against vaso-obliteration in the OIR model [2]: inactivity; Inhibition of IL-1β-induced thymocyte TF-1 proliferation, compared to peptide 1 [4]: significantly diminished activity
H-D-Arg-D-Tyr-(S)-Agl-(S)-Val-D-Glu-D-Leu-D-Ala-NH2 [[(3S)-Agl^3-(S)-Val^4]-1]	102.7 ± 8.637	–	–	–	–
H-D-Arg-D-Tyr-(S)-Agl-D-Val-D-Glu-D-Leu-D-Ala-NH2 [[(3S)-Agl^3]-1]	106.6 ± 12.39	1	–	no appreciable effect on microglial morphology	Efficacy against vaso-obliteration in the OIR model [2]: inactivity; Reduction of microglial density ([3]; Iba-1-positive cell counts): < 20%
H-D-Arg-D-Tyr-D-Thr-D-Val-D-Glu-D-Leu-D-Ala-NH2 [Peptide 1]	–	4	15–20%	inactive and ramified	–
Kineret: FDA-approved recombinant IL-1 receptor antagonist	–	3	15–20%	–	–
